Columns and labels:
[1] = tested on: normal SD rats; test: Pharmacodynamic study in normal SD rats (blood glucose, single subcutaneous dose); format: in vivo; conditions: for Blood Glucose Levels: Table 4.2, SD rats, 650 nmol/kg s.c. single dose, Mean ± SEM, n = 8
Experimental: Normal male SD rats aged 8-9 weeks, body weight 280-320 g, were selected. Animals were housed in animal housing facilities with strictly controlled environmental conditions, where the temperature is maintained between 20°Cand 24°C and humidity was kept between 30 and 70%. During the experiment, animals were housed individually with free access to food and water.
After one week of adaptive feeding, the experiment commenced. Rats were assigned to Solvent group 1, Solvent group 2, and the treatment group based on body weight and blood glucose levels before administration, with eight rats per group. The administered doses were all 650 nmol/kg.
The above drugs were dissolved in the solvent to a concentration of 216.7 nmol/mL. The dosing volume is 3 mL/kg. For a single subcutaneous administration, with the administration time set as 0 hours, blood glucose levels were measured at 0 h before dosing, and at 4 h, 8 h, 24 h, 28 h, 48 h, 72 h, 96 h, and 120 h after dosing (without dietary restrictions).

[2] = molecular target: T1, human serum albumin (HSA) (Homo sapiens, UniProt P02768); test: In vitro binding to HSA via SPR (Biacore 8K)
Experimental: (§1) According to the instructions for the Amine Coupling Kit, Type 2 (Cytiva), immobilize human serum albumin onto the surface of the CM5 sensor chip of the S Series. […] Human serum albumin (HSA) was diluted to 20 µg/mL with acetic acid solution of pH 4.5. The EDC/NHS mixture solution, HSA protein solution, and 1M ethanolamine-hydrochloric acid solution were added to the detection plate according to the program settings. b) The detection plate was placed into the Biacore 8K sample compartment. The EDC/NHS mixture solution, HSA protein solution, and 1M ethanolamine-hydrochloric acid solution were sequentially injected into the channels on the surface of the CM5 chip by the Biacore 8K according to the program. Through this process, the chip was activated, the ligand was coupled, and the chip was deactivated. Each channel consists of two circulation pools, with circulation pool 1 serving as the reference channel undergoing only surface activation and deactivation without injection of HSA protein solution.
(§2) The detection plate was placed into the sample compartment of the Biacore 8K, with the running buffer serving as the 0-concentration reference sample. c) Run the detection program, with samples sequentially injected into each channel of the chip according to the program.
(§3) Finally, the data was analyzed using BiaCore Insight Evaluation Software, employing a 1:1 binding model for analysis.

[3] = molecular target: T1, human serum albumin (HSA); conditions: hsa on cm5 chip
Experimental: as §1, §2, §3

[4] = HSA on CM5 chip, 1:1 binding model

T1 sequence (P02768 25-609): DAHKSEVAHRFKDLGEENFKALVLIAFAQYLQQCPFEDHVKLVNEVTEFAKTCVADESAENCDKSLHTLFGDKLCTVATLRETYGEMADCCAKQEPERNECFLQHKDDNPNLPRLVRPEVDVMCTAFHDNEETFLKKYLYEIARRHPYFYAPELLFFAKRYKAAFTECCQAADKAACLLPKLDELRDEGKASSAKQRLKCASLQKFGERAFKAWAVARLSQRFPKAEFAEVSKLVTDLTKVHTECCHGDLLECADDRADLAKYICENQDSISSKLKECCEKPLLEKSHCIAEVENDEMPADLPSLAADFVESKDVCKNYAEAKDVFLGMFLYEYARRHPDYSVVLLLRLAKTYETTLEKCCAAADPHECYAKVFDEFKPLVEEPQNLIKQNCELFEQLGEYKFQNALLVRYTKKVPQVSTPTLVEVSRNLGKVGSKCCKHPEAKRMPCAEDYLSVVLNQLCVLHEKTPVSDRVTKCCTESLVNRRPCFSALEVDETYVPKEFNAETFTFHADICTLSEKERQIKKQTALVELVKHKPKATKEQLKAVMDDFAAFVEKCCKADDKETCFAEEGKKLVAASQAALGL

## A14E, B16H, B25H, B29K (N^ε-[1-(19-Carboxyl-nonadecyloxy)-β-D-glucuronyl]-γGlu-[2-(2-{2-[2-(2-Aminoethoxy) ethoxy]acetylamino}ethoxy)ethoxy]acetyl), desB27, desB30 human insulin [Compound 4]
[1]; 0 h (before dosing)
  Blood Glucose Levels: 7.3 ± 0.1
[1]; 4 h
  Blood Glucose Levels: 3.6±0.3
[1]; 24 h
  Blood Glucose Levels: 4.2±0.4
[1]; 48 h
  Blood Glucose Levels: 4.4±0.5
[1]; 72 h
  Blood Glucose Levels: 6.6±0.5
[1]; 96 h
  Blood Glucose Levels: 7.8±0.1
[1]; 120 h
  Blood Glucose Levels: 7.5 ± 0.1
[1]; comparison in words with Icodec, SD rats, s.c.
  hypoglycemic effect: superior to Icodec
[2]; [4]
  ka: 612 M⁻¹ s⁻¹
  kd: 0.169 s⁻¹
[2]; comparison in words with Icodec, SPR
  binding affinity to HSA: superior binding affinity to HSA compared to Icodec
[3]
  Kd: 275 µM
